One test concerns the target T1, human ENPP1 (Homo sapiens, UniProt P22413).
T1 construct: made in house
T1 sequence (P22413 1-925): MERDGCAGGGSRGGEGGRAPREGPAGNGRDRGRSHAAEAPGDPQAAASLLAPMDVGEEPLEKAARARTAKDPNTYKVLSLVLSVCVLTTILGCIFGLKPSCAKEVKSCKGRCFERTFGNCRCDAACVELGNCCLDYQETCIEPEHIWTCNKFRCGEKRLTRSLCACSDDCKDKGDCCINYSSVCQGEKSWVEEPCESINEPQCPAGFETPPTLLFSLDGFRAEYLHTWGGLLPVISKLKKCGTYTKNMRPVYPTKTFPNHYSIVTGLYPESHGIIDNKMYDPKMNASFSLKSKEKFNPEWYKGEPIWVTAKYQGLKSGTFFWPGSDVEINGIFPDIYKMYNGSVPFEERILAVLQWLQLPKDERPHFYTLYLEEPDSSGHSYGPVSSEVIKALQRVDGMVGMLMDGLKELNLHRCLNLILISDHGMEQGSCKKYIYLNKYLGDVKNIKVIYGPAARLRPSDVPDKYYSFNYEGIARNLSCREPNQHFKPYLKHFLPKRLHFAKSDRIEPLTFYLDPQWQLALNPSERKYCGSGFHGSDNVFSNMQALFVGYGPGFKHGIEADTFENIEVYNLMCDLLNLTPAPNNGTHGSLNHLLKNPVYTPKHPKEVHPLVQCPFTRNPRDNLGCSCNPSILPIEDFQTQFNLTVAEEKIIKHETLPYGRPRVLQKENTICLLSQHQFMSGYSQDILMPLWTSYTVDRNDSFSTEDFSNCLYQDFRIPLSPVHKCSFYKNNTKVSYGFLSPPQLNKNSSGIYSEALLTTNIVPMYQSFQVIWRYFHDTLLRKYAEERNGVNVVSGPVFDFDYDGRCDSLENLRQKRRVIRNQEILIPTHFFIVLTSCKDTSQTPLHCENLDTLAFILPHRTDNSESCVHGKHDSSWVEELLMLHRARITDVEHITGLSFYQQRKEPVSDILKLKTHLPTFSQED
In words: ENPP1 assay with ATP substrate (Transcreener AMP2/GMP2 TR-FRET). It is filed as biochemical. The settings on record: 1 hour at room temperature. An excerpt:
Example B1: ENPP1 Assay with ATP Substrate
Ectonucleotide pyrophosphatase/phosphodiesterase 1 (ENPP1) hydrolyzes ATP, breaking it down into 5′-AMP and pyrophosphate. The 5′-AMP formed from the reaction is detected by Transcreener® AMP2/GMP2 TR-FRET Assay (Bellbrook), containing AMP-tracer (HiLyte 647) and anti-AMP Terbium (Tb) donor. 5′-AMP generated in the reaction competes with AMP-tracer for binding with Anti-AMP Tb donor, and decreases TR-FRET signal.
Different concentrations of ENPP1 inhibitors are added to dry assay plate, followed by 2 μl 300 nM ATP. The reaction is initiated with the addition of 2 μl 8.5 μM human ENPP1 (generated by SBP Protein group). The assay reaction mixture contains a buffer of 50 mM Tris, pH 7.5, 1 mM TCEP, 2 mM MgCl2, 0.005% Tween 20, and 1% DMSO. The reaction is stopped after 1 hour at room temperature by adding 2 μL of 2 nM AMP-tracer and 2 μl of 2 nM Anti-AMP Tb donor in the 50 mM Tris, pH 7.5, buffer containing 20 mM EDTA and 0.1% Prionex. After 2 hour additional incubation at room temperature, the generated signal is measured using BMG Lab PHERASTAR instrument. 100% activity control samples (containing enzyme, substrate, buffer: MAX) and no enzyme control samples (containing substrate and buffer: MIN) are utilized to calculate percent inhibition (%) for each compound concentration well (COMPOUND) as follows.
The IC50 values are determined by fitting the inhibition curves with 2-parameter variable slope model in Graphpad Prism software using percent inhibition vs compound concentration data: […]
In general terms: TR-FRET usually uses a lanthanide donor and a delayed reading to cut background.

The target in another test is T2, ENPP3 (Homo sapiens, UniProt O14638).
T2 sequence (O14638 1-875): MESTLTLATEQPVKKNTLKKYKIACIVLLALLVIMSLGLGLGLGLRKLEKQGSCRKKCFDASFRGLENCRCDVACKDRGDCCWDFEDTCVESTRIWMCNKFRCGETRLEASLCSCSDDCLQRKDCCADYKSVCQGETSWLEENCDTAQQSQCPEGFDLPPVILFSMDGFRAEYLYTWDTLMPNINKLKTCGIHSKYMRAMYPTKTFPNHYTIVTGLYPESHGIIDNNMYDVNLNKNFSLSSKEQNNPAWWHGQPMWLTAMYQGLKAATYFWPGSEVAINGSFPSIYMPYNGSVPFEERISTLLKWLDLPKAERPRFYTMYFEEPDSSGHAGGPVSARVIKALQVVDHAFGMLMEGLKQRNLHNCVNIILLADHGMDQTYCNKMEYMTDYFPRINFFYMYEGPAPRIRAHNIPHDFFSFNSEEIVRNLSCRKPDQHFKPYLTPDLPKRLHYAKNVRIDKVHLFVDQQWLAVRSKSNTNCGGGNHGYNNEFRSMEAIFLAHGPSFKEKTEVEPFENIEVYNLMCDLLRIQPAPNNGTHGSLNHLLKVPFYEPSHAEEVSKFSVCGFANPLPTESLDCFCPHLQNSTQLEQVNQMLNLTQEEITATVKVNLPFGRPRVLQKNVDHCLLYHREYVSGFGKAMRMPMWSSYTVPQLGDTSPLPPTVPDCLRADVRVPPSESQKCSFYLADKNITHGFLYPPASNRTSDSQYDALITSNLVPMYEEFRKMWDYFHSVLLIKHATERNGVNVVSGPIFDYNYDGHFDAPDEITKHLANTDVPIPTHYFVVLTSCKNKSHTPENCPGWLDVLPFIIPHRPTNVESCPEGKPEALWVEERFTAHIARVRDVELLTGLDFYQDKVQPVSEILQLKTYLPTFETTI
The test can be described thus: ENPP3 Km ATP assay. It is filed as biochemical. The settings on record: ATP at Km.

A value given as a limit tells only on which side of the number the result lay.

In general, IC50 refers to the point on the concentration scale where inhibition reaches its midpoint. For `Cc1cc(CNc2nc(-c3ccccn3)nc3scc(-c4ccccc4)c23)ccc1S(N)(=O)=O` [Example 1.19, 2-Methyl-4-(((5-phenyl-2-(pyridin-2-yl)thieno[2,3-d]pyrimidin-4-yl)amino)methyl)-benzenesulfonamide], the values for the IC50 against human ENPP1 and at ENPP3 were under 0.1 µM and 0.1 to 1 µM, respectively.
In the case of `NS(=O)(=O)c1ccc(CNc2nc(-c3ccccn3)nc3scc(-c4ccncc4)c23)cc1` [Example 1.20, 4-(((2-(Pyridin-2-yl)-5-(pyridin-4-yl)thieno[2,3-d]pyrimidin-4-yl)amino)methyl)-benzenesulfonamide], the half-maximal inhibitory concentration (IC50) at human ENPP1 was 1 to 20 µM; against ENPP3, over 20 µM.
For the molecule `NS(=O)(=O)c1ccc(CNc2nc(-c3ccccn3)nc3scc(-c4ccccc4)c23)c(Cl)c1` [Example 1.21, 3-Chloro-4-(((5-phenyl-2-(pyridin-2-yl)thieno[2,3-d]pyrimidin-4-yl)amino)methyl)-benzenesulfonamide], the results for the IC50 at human ENPP1 and against ENPP3 were under 0.1 µM and 0.1 to 1 µM, respectively.
On the same counts, the results for `NS(=O)(=O)c1ccc(CNc2nc(-c3ccccn3)nc3scc(-c4cccnc4)c23)cc1` [Example 1.22, 4-(((2-(Pyridin-2-yl)-5-(pyridin-3-yl)thieno[2,3-d]pyrimidin-4-yl)amino)methyl)-benzenesulfonamide] are under 0.1 µM and 1 to 20 µM.
For `NS(=O)(=O)c1ccc(CNc2nc(-c3ccccn3)nc3scc(-c4ccccn4)c23)cc1` [Example 1.23, 4-(((2,5-Di(pyridin-2-yl)thieno[2,3-d]pyrimidin-4-yl)amino)methyl)benzenesulfonamide], the IC50 at human ENPP1 is 0.1 to 1 µM; on ENPP3, 1 to 20 µM.
The matching figures for `NS(=O)(=O)c1ccc(CNc2nc(-c3ccccc3)nc3scc(-c4ccccc4)c23)cc1` [Example 1.24, 4-(((2,5-Diphenylthieno[2,3-d]pyrimidin-4-yl)amino)methyl)benzenesulfonamide]: over 20 µM and over 20 µM.
The matching figures for `CN1CCN(c2nc(NCc3ccc(S(N)(=O)=O)cc3)c3c(-c4ccccc4)csc3n2)CC1` [Example 1.25, 4-(((2-(4-Methylpiperazin-1-yl)-5-phenylthieno[2,3-d]pyrimidin-4-yl)amino)methyl)-benzenesulfonamide]: under 0.1 µM and under 0.1 µM.
The matching figures for `NS(=O)(=O)c1ccc(CNc2nc(NC3CC3)nc3scc(-c4ccccc4)c23)cc1` [Example 1.26, 4-(((2-(Cyclopropylamino)-5-phenylthieno[2,3-d]pyrimidin-4-yl)amino)methyl)-benzenesulfonamide]: under 0.1 µM and under 0.1 µM.
Turning to `NS(=O)(=O)c1ccc(CNc2nc(-c3ccccc3)nc3scc(-c4ccccc4)c23)s1` [Example 1.27, 5-(((2,5-Diphenylthieno[2,3-d]pyrimidin-4-yl)amino)methyl)thiophene-2-sulfonamide], the results for the IC50 against human ENPP1 and against ENPP3 were 1 to 20 µM and over 20 µM, respectively.
Consider `NS(=O)(=O)c1ccc(CNc2ncnc3scc(-c4ccccc4)c23)s1` [Example 1.28, 5-(((5-Phenylthieno[2,3-d]pyrimidin-4-yl)amino)methyl)thiophene-2-sulfonamide], for which the IC50 is 1 to 20 µM against human ENPP1 and over 20 µM at ENPP3.
The matching figures for `NS(=O)(=O)c1ccc(CNc2nc(-c3ccncc3)nc3scc(-c4ccccc4)c23)s1` [Example 1.29, 5-(((5-Phenyl-2-(pyridin-4-yl)thieno[2,3-d]pyrimidin-4-yl)amino)methyl)thiophene-2-sulfonamide]: over 20 µM and over 20 µM.
On the same counts, the results for `NS(=O)(=O)c1ccc(CNc2nc(-c3cccnc3)nc3scc(-c4ccccc4)c23)s1` [Example 1.30, 5-(((5-Phenyl-2-(pyridin-3-yl)thieno[2,3-d]pyrimidin-4-yl)amino)methyl)thiophene-2-sulfonamide] are 1 to 20 µM and over 20 µM.
On the same counts, the results for `NS(=O)(=O)c1ccc(CNc2nc(-c3ccccn3)nc3scc(-c4ccccc4)c23)s1` [Example 1.31, 5-(((5-Phenyl-2-(pyridin-2-yl)thieno[2,3-d]pyrimidin-4-yl)amino)methyl)thiophene-2-sulfonamide] are under 0.1 µM and 0.1 to 1 µM.
Turning to `Cc1ccc(CNc2nc(-c3ccccn3)nc3scc(-c4ccccc4)c23)o1` [Example 1.32, N-((5-methylfuran-2-yl)methyl)-5-phenyl-2-(pyridin-2-yl)thieno[2,3-d]pyrimidin-4-amine], the IC50 was 1 to 20 µM at human ENPP1 and over 20 µM at ENPP3.
The matching figures for `c1ccc(-c2csc3nc(-c4ccccn4)nc(NCc4cccs4)c23)cc1` [Example 1.33, (5-Phenyl-2-pyridin-2-yl-thieno[2,3-d]pyrimidin-4-yl)-thiophen-2-ylmethyl-amine]: 0.1 to 1 µM and 1 to 20 µM.
On the same counts, the results for `NS(=O)(=O)c1ccc(CNc2nc(N3CCOCC3)nc3scc(-c4ccccc4)c23)cc1` [Example 1.38, 4-(((2-Morpholino-5-phenylthieno[2,3-d]pyrimidin-4-yl)amino)methyl)-benzenesulfonamide] are under 0.1 µM and under 0.1 µM.
On the same counts, the results for `NS(=O)(=O)c1ccc(CNc2nc(N3CCCCC3)nc3scc(-c4ccccc4)c23)cc1` [Example 1.39, 4-(((5-Phenyl-2-(piperidin-1-yl)thieno[2,3-d]pyrimidin-4-yl)amino)methyl)-benzenesulfonamide] are 0.1 to 1 µM and 0.1 to 1 µM.
For `NS(=O)(=O)c1ccc(CNc2nc(NC3CCCCC3)nc3scc(-c4ccccc4)c23)cc1` [Example 1.40, 4-(((2-(Cyclohexylamino)-5-phenylthieno[2,3-d]pyrimidin-4-yl)amino)methyl)-benzenesulfonamide], the figures for the IC50 on human ENPP1 and on ENPP3 were 0.1 to 1 µM and 1 to 20 µM, respectively.
The matching figures for `NS(=O)(=O)c1ccc(CNc2nc(NCc3ccccc3)nc3scc(-c4ccccc4)c23)cc1` [Example 1.41, 4-(((2-(Benzylamino)-5-phenylthieno[2,3-d]pyrimidin-4-yl)amino)methyl)-benzenesulfonamide]: under 0.1 µM and 0.1 to 1 µM.

For the origin of these results see patent US12643910B2, “Substituted pyrazolo[3,4-b]pyridines as ectonucleotide pyrophosphatase/phosphodiesterase 1 (ENPP1) modulators” (SANFORD BURNHAM PREBYS MEDICAL DISCOVERY INSTITUTE, priority 2019, dated 2026).
